Test results taken from ChEMBL document CHEMBL1142097, “EthA, a common activator of thiocarbamide-containing drugs acting on different mycobacterial targets” (Antimicrob Agents Chemother, 2007).
Activity calls are given as the source filed them. No cut-off for these calls is given here.

System: Mycobacterium tuberculosis
Assay: Antimycobacterial activity against Mycobacterium tuberculosis H37Rv
Format: functional, organism-based

COc1ccc(/C(C)=N/NC(N)=S)cc1 was tested, and the Activity was “Active”.
